Measured values published in US20150157739A1, “Imidazo[2,1]thiazol-3-one derivatives” (Hoffmann-La Roche Inc., priority 2012, published 2015).

Assays:
[1] = molecular target: T1, aggregated synthetic Aβ40 (Homo sapiens, UniProt P05067); test: Thiazin-red R displacement fluorescence assay on aggregated A-beta; format: binding; settings: displacement of Thiazin-red R from aggregated Aβ40; compound 0.3 nM to 10000 nM; 30 min room temperature; Ex 531 nm/Em 595 nm
T1 construct: Synthetic Aβ40 is aggregated at a concentration of 50 μM
T1 sequence (P05067 672-711 limits assumed): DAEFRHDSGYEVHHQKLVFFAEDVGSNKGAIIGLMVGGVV
Method: (§1) Assay for Determination of […] for Tau and A-Beta
(§2) Recombinant human-microtubule associated protein Tau purified from E. coli is aggregated at a concentration of 5 μM with Arachidonic Acid (100 μM) in Tris 10 mM pH8, 24 h at 37° C. Synthetic Aβ40 is aggregated at a concentration of 50 μM with Arachidonic Acid (100 μM) in Tris 10 mM pH8, for three days at 37° C., under shaking at 150 rpm.
(§3) A saturation analysis of Thiazin-red R to the aggregated proteins is done to determine the affinity (Kd) of the Thiazin-red R to the aggregated protein.
(§4) Thiazin-red R will be added at the concentration corresponding to the Kd to the respective aggregated protein binding site, to induce a fluorescent signal that can be inhibited by the addition of a displacer compound.
(§5) In parallel, auto fluorescence of the compound is measured together with the aggregated proteins, but without Thiazin-red R. As negative control, ligand and aggregated protein is used and as positive control, Thiazin-red R, reference compound with known activity and aggregated protein is used.
(§6) Assay is performed in Perkin Elmer OptiPlate 384, black, 45 ul assay volume, assay buffer is DPBS no CaCl2 no MgCl2 (GIBCO N. 14020). Tested compounds are diluted in DMSO and 2 μl is added to the assay ([…]). Assay is started by the addition of the aggregated protein (competitive condition). Plates are shortly shacked (1 min with Sterico variomag teleshake) and incubated for 30 min at room temperature. Measurement are done with En:Vision (Perkin Elmer), at Excitation 531 nm/Emission 595 nm.

[2] = molecular target: T2, aggregated recombinant human-microtubule associated protein Tau (Homo sapiens, UniProt P10636); test: Thiazin-red R displacement fluorescence assay on aggregated Tau; format: binding; settings: displacement of Thiazin-red R from aggregated Tau; compound 0.3 nM to 10000 nM; 30 min room temperature; Ex 531 nm/Em 595 nm
T2 construct: Recombinant human-microtubule associated protein Tau purified from E. coli is aggregated at a concentration of 5 μM with Arachidonic Acid (100 μM) in Tris 10 mM pH8, 24 h at 37° C
T2 sequence (P10636 whole entry): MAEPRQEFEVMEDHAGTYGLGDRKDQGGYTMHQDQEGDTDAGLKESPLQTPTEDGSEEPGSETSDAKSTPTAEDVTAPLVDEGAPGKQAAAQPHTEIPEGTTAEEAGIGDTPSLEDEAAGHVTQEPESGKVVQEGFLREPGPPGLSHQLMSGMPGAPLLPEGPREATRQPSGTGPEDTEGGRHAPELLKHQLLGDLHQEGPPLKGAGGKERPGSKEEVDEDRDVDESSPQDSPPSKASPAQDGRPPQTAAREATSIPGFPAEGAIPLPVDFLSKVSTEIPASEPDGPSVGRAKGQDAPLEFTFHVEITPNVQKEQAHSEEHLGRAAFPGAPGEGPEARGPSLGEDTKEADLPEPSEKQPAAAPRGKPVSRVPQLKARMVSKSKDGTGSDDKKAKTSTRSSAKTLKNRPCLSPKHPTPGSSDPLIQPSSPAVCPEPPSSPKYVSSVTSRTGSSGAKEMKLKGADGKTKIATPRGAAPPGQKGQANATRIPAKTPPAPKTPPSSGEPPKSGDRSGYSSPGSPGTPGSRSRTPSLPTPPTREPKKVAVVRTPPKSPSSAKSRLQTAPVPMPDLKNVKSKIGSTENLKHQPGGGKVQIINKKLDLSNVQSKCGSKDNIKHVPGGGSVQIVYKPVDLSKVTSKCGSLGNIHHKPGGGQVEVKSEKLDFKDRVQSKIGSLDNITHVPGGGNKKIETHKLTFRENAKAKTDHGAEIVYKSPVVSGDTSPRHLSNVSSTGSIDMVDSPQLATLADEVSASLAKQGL
Method: as §1, §2, §3, §4, §5, §6

| Structure (SMILES) | IC50 [1] [nM] | IC50 [2] [nM] |
| --- | --- | --- |
| COc1cc(/C=c2\sc3nc(-c4ccc(C(=O)N(C)C)cc4)cn3c2=O)cc(Cl)c1O [Example 126, 4-{2-[1-(3-Chloro-4-hydroxy-5-methoxy-phenyl)-meth-(Z)-ylidene]-3-oxo-2,3-dihydro-imidazo[2,1-b]thiazol-6-yl}-N,N-dimethyl-benzamide] | 550 | 28 |
| CCCOc1cc(/C=c2\sc3nc(-c4ccncc4)cn3c2=O)cc(F)c1O [Example 122, 2-[1-(3-Fluoro-4-hydroxy-5-propoxy-phenyl)-meth-(Z)-ylidene]-6-pyridin-4-yl-imidazo[2,1-b]thiazol-3-one] | 2670 | 23.5 |
| COc1cc(/C=c2\sc3nc(-c4ccccc4C)cn3c2=O)ccc1O [Example 11, 2-[1-(4-hydroxy-3-methoxy-phenyl)-meth-(Z)-ylidene]-6-o-tolyl-imidazo[2,1-b]thiazol-3-one] | 1280 | 837 |
| COc1cc(/C=c2\sc3nc(-c4ccc(C(=O)OCCCF)cc4)cn3c2=O)cc(Cl)c1O [Example 149, 4-{2-[1-(3-Chloro-4-hydroxy-5-methoxy-phenyl)-meth-(Z)-ylidene]-3-oxo-2,3-dihydro-imidazo[2,1-b]thiazol-6-yl}-benzoic acid 3-fluoro-propyl ester] | 168 | 2 |
| COc1cc(/C=c2\sc3nc(-c4ccc(Cl)cc4)cn3c2=O)cc(O)c1O [Example 8, 6-(4-Chloro-phenyl)-2-[1-(3,4-dihydroxy-5-methoxy-phenyl)-meth-(Z)-ylidene]-imidazo[2,1-b]thiazol-3-one] | 18 | 5 |
| COc1cc(/C=c2\sc3nc(-c4ccc(NC(C)=O)cc4)cn3c2=O)cc(Cl)c1O [Example 103, N-(4-{2-[1-(3-Chloro-4-hydroxy-5-methoxy-phenyl)-meth-(Z)-ylidene]-3-oxo-2,3-dihydro-imidazo[2,1-b]thiazol-6-yl}-phenyl)-acetamide] | 1160 | 24 |
| COc1cc(/C=c2\sc3nc(-c4ccc(Cl)cc4)cn3c2=O)cc(OC)c1O [Example 2, 6-(4-Chloro-phenyl)-2-[1-(4-hydroxy-3,5-dimethoxy-phenyl)-meth-(Z)-ylidene]-imidazo[2,1-b]thiazol-3-one] | 7 | 2 |
| COc1cc(/C=c2\sc3nc(-c4cccc(C(=O)N(C)CCc5cccc(F)c5)c4)cn3c2=O)cc(Cl)c1O [Example 118, 3-{2-[1-(3-Chloro-4-hydroxy-5-methoxy-phenyl)-meth-(Z)-ylidene]-3-oxo-2,3-dihydro-imidazo[2,1-b]thiazol-6-yl}-N-[2-(3-fluoro-phenyl)-ethyl]-N-methyl-benzamide] | > 10000 | 12.9 |
| COc1cc(/C=c2\sc3nc(-c4ccc(C(=O)N5CCC(F)CC5)cc4)cn3c2=O)cc(Cl)c1O [Example 127, 2-[1-(3-Chloro-4-hydroxy-5-methoxy-phenyl)-meth-(Z)-ylidene]-6-[4-(4-fluoro-piperidine-1-carbonyl)-phenyl]-imidazo[2,1-b]thiazol-3-one] | 118 | 6 |
| COc1cc(/C=c2\sc3nc(-c4ccncc4)cn3c2=O)cc(OC)c1O [Example 1, 2-[1-(4-Hydroxy-3,5-dimethoxy-phenyl)-meth-(Z)-ylidene]-6-pyridin-4-yl-imidazo[2,1-b]thiazol-3-one] | 93 | 5 |
| COc1cc(/C=c2\sc3nc(-c4ccc(N(C)C)cc4)cn3c2=O)cc(Cl)c1O [Example 93, 2-[1-(3-Chloro-4-hydroxy-5-methoxy-phenyl)-meth-(Z)-ylidene]-6-(4-(dimethylamino)phenyl)-imidazo[2,1-b]thiazol-3-one] | 29 | 30 |
| COc1cc(/C=c2\sc3nc(-c4cc(C)nc(C)c4)cn3c2=O)cc(Cl)c1O [Example 63, 2-[1-(3-Chloro-4-hydroxy-5-methoxy-phenyl)-meth-(Z)-ylidene]-6-(2,6-dimethyl-pyridin-4-yl)-imidazo[2,1-b]thiazol-3-one] | 418 | 13 |
| COc1cc(/C=c2\sc3nc(-c4ccc(C(=O)NCCCF)cc4)cn3c2=O)cc(Cl)c1O [Example 117, 4-{2-[1-(3-Chloro-4-hydroxy-5-methoxy-phenyl)-meth-(Z)-ylidene]-3-oxo-2,3-dihydro-imidazo[2,1-b]thiazol-6-yl}-N-(3-fluoro-propyl)-benzamide] | 643 | 5 |
| COc1cc(/C=c2\sc3nc(-c4cccc(OC(F)(F)F)c4)cn3c2=O)cc(OC)c1O [Example 18, 2-[1-(4-Hydroxy-3,5-dimethoxy-phenyl)-meth-(Z)-ylidene]-6-(3-trifluoromethoxy-phenyl)-imidazo[2,1-b]thiazol-3-one] | 114 | 4 |
| CCCOc1cc(/C=c2\sc3nc(-c4ccc(-n5cnc(C)c5)nc4)cn3c2=O)cc(Cl)c1O [Example 112, 2-[1-(3-Chloro-4-hydroxy-5-propoxy-phenyl)-meth-(Z)-ylidene]-6-[6-(4-methyl-imidazol-1-yl)-pyridin-3-yl]-imidazo[2,1-b]thiazol-3-one] | 493 | 8 |

Second part, the molecule after the results:

| IC50 [1] [nM] | IC50 [2] [nM] | Structure (SMILES) |
| --- | --- | --- |
| 115 | 1 | COc1cc(/C=c2\sc3nc(-c4cccc(C(F)(F)F)c4)cn3c2=O)cc(OC)c1O [Example 19, 2-[1-(4-Hydroxy-3,5-dimethoxy-phenyl)-meth-(Z)-ylidene]-6-(3-trifluoromethyl-phenyl)-imidazo[2,1-b]thiazol-3-one] |
| 552 | 6 | COc1cc(/C=c2\sc3nc(-c4cccc(OC(F)(F)F)c4)cn3c2=O)cc(Br)c1O [Example 37, 2-[1-(3-Bromo-4-hydroxy-5-methoxy-phenyl)-meth-(Z)-ylidene]-6-(3-trifluoromethoxy-phenyl)-imidazo[2,1-b]thiazol-3-one] |
| > 10000 | 25 | COc1cc(/C=c2\sc3nc(-c4cccc(C#N)c4)cn3c2=O)cc(Br)c1O [Example 45, 3-{2-[1-(3-Bromo-4-hydroxy-5-methoxy-phenyl)-meth-(Z)-ylidene]-3-oxo-2,3-dihydro-imidazo[2,1-b]thiazol-6-yl}-benzonitrile] |
| > 10000 | 701 | CCc1cc(/C=c2\sc3nc(-c4cccc(OC(F)(F)F)c4)cn3c2=O)cc(OC)c1O [Example 40, 2-[1-(3-Ethyl-4-hydroxy-5-methoxy-phenyl)-meth-(Z)-ylidene]-6-(3-trifluoromethoxy-phenyl)-imidazo[2,1-b]thiazol-3-one] |
| 76 | 1 | COc1cc(/C=c2\sc3nc(-c4ccnc(C)c4)cn3c2=O)cc(Br)c1O [Example 77, 2-[1-(3-Bromo-4-hydroxy-5-methoxy-phenyl)-meth-(Z)-ylidene]-6-(2-methylpyridin-4-yl)-imidazo[2,1-b]thiazol-3-one] |
| 591 | 19 | COc1cc(/C=c2\sc3nc(-c4cccc(C(N)=O)c4)cn3c2=O)cc(F)c1O [Example 121, 3-{2-[1-(3-Fluoro-4-hydroxy-5-methoxy-phenyl)-meth-(Z)-ylidene]-3-oxo-2,3-dihydro-imidazo[2,1-b]thiazol-6-yl}-benzamide] |
| 653 | 25 | CCc1cccc(-c2cn3c(=O)/c(=C/c4cc(Cl)c(O)c(OC)c4)sc3n2)c1 [Example 54, 2-[1-(3-Chloro-4-hydroxy-5-methoxy-phenyl)-meth-(Z)-ylidene]-6-(3-ethyl-phenyl)-imidazo[2,1-b]thiazol-3-one] |
